Reference: US20240043527A1 (BioNTech SE, priority 2020, published 2024)

Columns and labels:
[1] = test system: primary human hepatocytes; experiment: Expression and assembly of RiboMab after lipofection of primary human hepatocytes (ELISA, Western Blot); format: cell-based; conditions: 48 hours post lipofection
Experimental: (Left) ELISA analyses of RiboMab01 concentrations 48 hours post transfection. (Right) Western Blot analysis of cell culture supernatant from indicated lipofections. Recombinant purified IMAB362 served as reference for Western Blot analysis. Analysis was performed under non-reducing conditions and with HRP-conjugated anti-human antibodies. A mixture of Fcγ-fragment specific and anti-kappa light chain specific antibodies was used for detection of full length IgG, free heavy (HC) and free light chains (LC). Supernatant of untransfected primary human hepatocytes served as mock control. […] RiboMab01 concentration determined via ELISA 48 hours post transfection are shown. Error bars are standard errors of the mean (n=3).
Assembly of full IgG after RNA transfection of hepatocytes.

[2] = test system: CLDN-18.2+ NUG-C4 transfectants; experiment: Ex vivo ADCC assay with plasma of dosed mice; format: cell-based, human; conditions: 1% plasma sampled 24 hours post 5th IV dosing of 1-30 μg RNA composition, 48 hours, E:T 30:1
Experimental: (§1) Plasma of mice dosed with five repetitive injections of either 1 μg (˜0.04 mg/kg), 3 μg (˜0.10 mg/kg), 10 μg (˜0.40 mg/kg) and 30 μg (˜1.20 mg/kg) RB_RMAB01 or 80 μg (˜3.20 mg/kg) of IMAB362 was sampled 24 hours post 5th injection and directed to luciferase-based ex vivo ADCC assays. Plasma of untreated mice spiked with IMAB362 served as assay reference. […] (Panel A) RiboMab01 mediated ADCC of NUG-C4 cells after 48 hours incubation with 1% of plasma is shown. […] Error bars are standard errors of the mean (n=3).
(§2) Plasma of untreated mice spiked with IMAB362 served as assay reference.

[3] = Single dose PK study in mice (ELISA); format: in vivo, Balb/cJRj mice; conditions: single IV dose
Experimental: Balb/cJRj mice received a single IV injection of 1 μg (0.040 mg/kg), 3 μg (˜0.10 mg/kg), 10 μg (˜0.40 mg/kg) or 30 μg (˜1.20 mg/kg) RB_RMAB01 drug product and […] IMAB362 reference protein. Plasma was sampled 6, 24, 96, 168, 264, 336 and 504 hours post administration. RiboMab01 concentrations in plasma measured via ELISA are shown. Error bars are standard errors of the mean (n=3).

[4] = test system: CHO-K1 cells; experiment: Expression and assembly of RiboMab after lipofection of CHO-K1 cells (ELISA); format: cell-based, Chinese hamster; conditions: 48 hours post lipofection
[5] = test system: CLDN-18.2+ NUG-C4 transfectants; experiment: In vitro ADCC assay (luciferase-based); format: cell-based, human; conditions: for ADCC, cellular cytotoxicity: control cells MDA-MB-231, human PBMCs, E:T 30:1
Experimental: (§3) RiboMab01-containing cell culture supernatant from CHO-K1 cells lipofected with RB_RMAB01 was subjected to (Panel A) ADCC and (Panel B) CDC assays. […] Human PBMCs of three different healthy donors were utilized as effector cells (E:T ratio 30:1). Target or control and effector cells were incubated for 48 hours with the indicated RiboMab01 and IMAB362 reference protein concentrations. Specific cell lysis as determined in a luciferase-based assay is shown. […] Target and control cells were incubated with human serum and RiboMab01 concentrations as indicated for 2 hours. CDC determined in a luciferase-based assay is shown. Error bars are standard errors of the mean (n=3).
(§4) Mode of action analysis: Antibody-dependent cellular cytotoxicity (ADCC) and complement-dependent cytotoxicity (CDC) in vitro. […] To simulate in vivo conditions, human PBMCs from three different healthy donors were used as effector cells in ADCC assays in an effector to target (E:T) ratio of 30:1 and human serum (e.g., commercially available human serum) was used as a source of complement in CDC assays.

[6] = test system: CLDN-18.2+ CHO-K1 transfectants; experiment: In vitro CDC assay (luciferase-based); format: cell-based; conditions: human serum, 2 hours, control CLDN-18.2-negative CHO-K1
Experimental: as §3, §4

[7] = test system: MDA-MB-231 cells; experiment: Ex vivo ADCC assay with plasma of dosed mice, target-negative control cells; format: cell-based, human; conditions: mouse plasma
Experimental: as §1, §2

[8] = cynomolgus monkey, in vivo
Experimental: Furthermore, immunotoxicity in vivo was assessed as part of the repeated-dose toxicity study in mice and a pharmacokinetic study in cynomolgus monkey. All studies were designed in accordance with the ICH S8 guideline (Immunotoxicity studies for human pharmaceuticals).

[9] = test system: CLDN-18.2+ NCI-N87 xenograft tumors; experiment: CLDN-18.2+ human gastric carcinoma xenograft tumor model; format: in vivo, mice; conditions: IV injections of 1-30 μg RB_RMAB01 on test days 15, 22, 29, 36, 43 and 50
Experimental: Median tumor growth of treatment and control groups is shown. Dotted lines indicate injections. Significance was calculated by Two-way ANOVA. Ns indicates not significant.

[10] = test system: MDA-MB-231 cells; experiment: Ex vivo ADCC assay with serum of dosed non-human primates, target-negative control cells; format: cell-based
Experimental: Non-Human Primates (NHP) received three repetitive doses of 0.1, 0.4 or 1.6 mg/kg RB_RMAB01 once weekly. RiboMab01-containing serum of all monkeys sampled 24 hours (black bars) and 168 hours (white bars) post 1st injection was directed to luciferase-based ex vivo ADCC assays. […] Human PBMCs from two different healthy donors (24 h, donor 1, 168 h, donor 2) served as effector cells. (Panel A) RiboMab01-mediated ADCC of NUG-C4 cells after 48 hours incubation is shown. (Panel B) Unspecific lysis on target-negative MDA-MB-231 cells is shown. Error bars are standard error of the mean (n=3). (Panel C) Serum of NHP No. 14 (1.6 mg/kg RB_RMAB01, RiboMab01 serum concentration 232 μg/mL) collected 48 hours after the 3rd dosing was used for a luciferase-based ex vivo ADCC assays. […] Human PBMCs of a healthy donor served as effector cells. […] Incubation time was 48 hours. Error bars are standard errors of the mean (n=3).
ADCC assays were performed as described in Example 2. […] Purified IMAB362 served as assay reference protein.

CLDN-18.2-targeting RiboMab: CLDN-18.2-targeting IgG antibody (IMAB362 delivered as ribonucleic acid) expressed from mRNAs encoding heavy and light chain
expression and assembly of full IgG in cell supernatant [1]: Fully assembled
expression and assembly of full IgG in cell supernatant ([1]; listed as RiboMab01): expressed
ADCC target cell lysis [2]: high and dose-dependent target cell lysis
ADCC target cell lysis ([2]; listed as RiboMab01): specific tumor cell lysis
time RiboMab detectable post administration [3]: up to 504 hours
time RiboMab detectable post administration ([3]; listed as CLDN-18.2-targeting antibody agent): up to 504 hours post dosing.
expression and assembly of full IgG in cell supernatant [4]: Fully assembled
expression and assembly of full IgG in cell supernatant ([4]; listed as RiboMab01): expressed
ADCC, cellular cytotoxicity [5]: target specific and dose-dependent cellular cytotoxicity comparable to the reference protein IMAB362
ADCC, cellular cytotoxicity ([5]; listed as RiboMab01): high target specific cell cytotoxicity
ADCC EC50 ([5]; human PBMCs from three donors, E:T 30:1, 48 hours): 0.01 to 0.127 µg/mL
CDC, cellular cytotoxicity [6]: target specific and dose-dependent cellular cytotoxicity comparable to the reference protein IMAB362
CDC, cellular cytotoxicity ([6]; listed as RiboMab01): high target specific cell cytotoxicity
unspecific lysis on target-negative cells [7]: No unspecific lysis
systemic side effects [8]: no systemic side effects such as diarrhea were observed
tumor growth inhibition in vivo (FIG. 6) [9]: tumor growth inhibition
unspecific lysis on control cells ([10]; FIG. 5 Panel C dilution row): weak unspecific lysis
unspecific lysis on target-negative cells ([10]; NHP serum 24 h and 168 h post dosing): Low effector, donor-dependent unspecific lysis
